Measurements reported in patent US7202239B2, “Cyclohexylphenyl carboxamides tocolytic oxytocin receptor antagonists” (Wyeth, priority 2001, dated 2007).

melting point: 127 to 129 °C
Compound: O=C(c1ccc(C2CCCCC2)cc1)N1Cc2cccn2Cc2ccccc21 [Example 4, 10-(4-Cyclohexyl-benzoyl)-10,11-dihydro-5H-pyrrolo[2,1-c][1,4]benzodiazepine]
